Experimental data from patent US9073895B2 (Boehringer Ingelheim International GmbH, priority 2010, dated 2015).

Legend:
[1] = system: synthesis of LTB4 in human whole blood; assay: Human whole blood LTB4 production inhibition assay; assay type: cell-based; conditions: heparinized human whole blood, calcimycin 20 μM, plasma LTB4; read-out: HuWB IC50
Procedure: Compounds are additionally tested in a human whole blood assay to determine their ability to inhibit the synthesis of LTB4 in a cellular system. Compounds are combined with heparinized human whole blood and incubated for 15 minutes at 37° C. Calcimycin (20 μM final, prepared in phosphate-buffered saline, pH 7.4) is then added and the mixture is incubated for another 30 minutes at 37° C. The samples are centrifuged for 5 min at low speed (1500×g) and the plasma layer is removed. Plasma LTB4 concentrations are then measured using an antibody-based homogenous time-resolved fluorescence method (CisBio, Bedford, Mass.).

[2] = biological target: T1, recombinant human FLAP protein (Homo sapiens, UniProt P20292); assay: FLAP binding assay (SPA, displacement of [125I]L-691,831); conditions: membranes of sf9 cells expressing human FLAP, [125I]L-691,831 probe; read-out: hFLAP binding IC50
T1 construct: made in house; host or cells: Sf9 insect cells (membrane fraction, 100,000 x g pellet)
T1 sequence (P20292 1-161): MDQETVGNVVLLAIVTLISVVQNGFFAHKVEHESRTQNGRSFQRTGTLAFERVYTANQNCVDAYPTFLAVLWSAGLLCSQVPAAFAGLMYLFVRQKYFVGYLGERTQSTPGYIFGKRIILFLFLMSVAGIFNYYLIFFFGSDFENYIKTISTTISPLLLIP
Procedure: Compounds are assessed for the ability to bind to FLAP in a binding assay that measures compound-specific displacement of an iodinated (^125I) FLAP inhibitor via a Scintillation Proximity Assay format (adapted from S. Charleson et al., Mol. Pharmacol., 1992, 41, 873-879).
Cell pellets produced from sf9 insect cells expressing recombinant human FLAP protein are resuspended in buffer A [15 mM Tris-HCl (pH 7.5), 2 mM MgCl2, 0.3 mM EDTA, 1 mM PMSF]. The cells are lysed with a Dounce homogenizer and the material is centrifuged at 10,000×g for 10 minutes. The supernatant is then collected and centrifuged at 100,000×g for 60 minutes. To prepare membrane protein for an assay, an aliquot of the 100,000×g pellet is resuspended in 1 ml of buffer A, Dounce homogenized, and finally subjected to polytron mixing (30 seconds). Membrane protein (25 μl, 5 μg) is mixed with WGA SPA beads (Amersham) and stirred for 1 h. To an assay plate (Perkin Elmer FlexiPlate) is added 25 μl of test compound prepared in Binding buffer [100 mM Tris (pH 7.5), 140 mM NaCl, 5% glycerol, 2 mM EDTA, 0.5 mM TCEP, 0.05% Tween 20], 25 μl of [^125I]L-691,831 (an iodinated analog of MK-591, Charleson et al. Mol. Pharmacol., 41, 873-879, 1992) and finally 50 μl of the bead/protein mixture. (final concentrations: beads, 200 μg/well; protein, 5μg/well; [^125I] probe, 0 08 nM/well(17 nCi/well). The plates are shaken for 2 h before reading on a Microbeta plate reader. Non-specific binding is determined by the addition of 10 μM cold L-691,831 compound.

Row | Compound | IC50 [1] | IC50 [2]
1 | CC(C)(C)c1cc(NC(=O)C2(c3ccc(-c4cnc(N)nc4)cc3)CCOCC2)ccn1 [Example 47, 4-[4-(2-aminopyrimidin-5-yl)phenyl]-N-(2-tert-butylpyridin-4-yl)tetrahydro-2H-pyran-4-carboxamide] | 3200 nM | 65 nM
2 | Cc1nc(NC(=O)C2(c3ccc(-c4cnc(N)nc4)cc3)CCOCC2)ccc1C#N [Example 52, 4-[4-(2-aminopyrimidin-5-yl)phenyl]-N-(5-cyano-6-methylpyridin-2-yl)tetrahydro-2H-pyran-4-carboxamide] | 1810 nM | 63.5 nM
3 | Cc1nc(-c2ccc(NC(=O)C3(c4ccc(-c5cnc6[nH]ccc6c5)cc4)CCOCC3)nc2)cs1 [Example 151, N-[5-(2-methyl-1,3-thiazol-4-yl)pyridin-2-yl]-4-[4-(1H-pyrrolo[2,3-b]pyridin-5-yl)phenyl]tetrahydro-2H-pyran-4-carboxamide] | 200 nM | 2.1 nM
4 | Nc1ncc(-c2ccc(C3(C(=O)Nc4ccc(C(F)(F)F)cc4)CCOCC3)cc2)cn1 [Example 41, 4-[4-(2-aminopyrimidin-5-yl)phenyl]-N-[4-(trifluoromethyl)phenyl] tetrahydro-2H-pyran-4-carboxamide] | > 3000 nM | 120 nM
5 | Cc1nc(-c2ccc(NC(=O)C3(c4ccc(-c5cnc(N)nc5)cc4)CCCCC3)cc2)cs1 [Example 120, 1-[4-(2-aminopyrimidin-5-yl)phenyl]-N-[4-(2-methyl-1,3-thiazol-4-yl)phenyl]cyclohexane-carboxamide] | 1270 nM | 11.5 nM
6 | CC(C)(C)c1nsc(NC(=O)C2(c3ccc(-c4cnc(N)nc4)cc3)CCOCC2)n1 [Example 124, 4-[4-(2-aminopyrimidin-5-yl)phenyl]-N-(3-tert-butyl-1,2,4-thiadiazol-5-yl)tetrahydro-2H-pyran-4-carboxamide] | 2170 nM | 77.5 nM
7 | CN1CCc2nc(NC(=O)C3(c4ccc(-c5cnc(N)nc5)cc4)CCC3)sc2C1 [Example 234, 1-[4-(2-aminopyrimidin-5-yl)phenyl]-N-(5-methyl-4,5,6,7-tetrahydro[1,3]thiazolo[5,4-c]pyridin-2-yl)cyclobutanecarboxamide] | 858 nM | 32.5 nM
8 | Nc1ncc(-c2ccc(C3(C(=O)Nc4ccc(-c5ccccc5)cn4)CCC3)cc2)cn1 [Example 201, 1-[4-(2-aminopyrimidin-5-yl)phenyl]-N-(5-phenylpyridin-2-yl)cyclobutanecarboxamide] | 224 nM | 3.75 nM
9 | Nc1ncc(-c2ccc(C3(C(=O)Nc4ccc(OC(F)(F)F)cc4)CCOCC3)cc2)cn1 [Example 39, 4-[4-(2-aminopyrimidin-5-yl)phenyl]-N-[4-(trifluoromethoxy)phenyl] tetrahydro-2H-pyran-4-carboxamide] | 1920 nM | 55 nM
10 | Nc1ncc(-c2ccc(C3(C(=O)Nc4ccccn4)CCC3)cc2)cn1 [Example 129, 1-[4-(2-aminopyrimidin-5-yl)phenyl]-N-(pyridin-2-yl)cyclobutanecarboxamide] | 8620 nM | 10.4 nM
11 | Nc1ncc(-c2ccc(C3(C(=O)Nc4cccc(-c5ccccc5)c4)CCOCC3)cc2)cn1 [Example 24, 4-[4-(2-aminopyrimidin-5-yl)phenyl]-N-(biphenyl-3-yl)tetrahydro-2H-pyran-4-carboxamide] | > 3000 nM | 95 nM
12 | Cc1nc(-c2ccc(NC(=O)C3(c4ccc(-c5cnc(N)nc5)cc4)CCOCC3)nc2)cs1 [Example 122, 4-[4-(2-aminopyrimidin-5-yl)phenyl]-N-[5-(2-methyl-1,3-thiazol-4-yl)pyridin-2-yl]tetrahydro-2H-pyran-4-carboxamide] | 1040 nM | 9.53 nM
13 | COc1cncc(-c2ccc(NC(=O)C3(c4ccc(-c5cnc(N)c(CO)c5)cc4)CCOCC3)nc2)c1 [Example 171, 4-{4-[6-amino-5-(hydroxymethyl)pyridin-3-yl]phenyl}-N-(5'-methoxy-3,3'-bipyridin-6-yl)tetrahydro-2H-pyran-4-carboxamide] | 566 nM | 2.05 nM
14 | Nc1ncc(-c2ccc(C3(C(=O)Nc4ccc(N5CCOCC5)c(Cl)c4)CCC3)cc2)cn1 [Example 245, 1-[4-(2-aminopyrimidin-5-yl)phenyl]-N-[3-chloro-4-(morpholin-4-yl)phenyl]cyclobutanecarboxamide] | 46 nM | 3.3 nM
15 | Nc1ncc(-c2ccc(C3(C(=O)Nc4ccc(-c5cscn5)cn4)CCOCC3)cc2)cn1 [Example 143, 4-[4-(2-aminopyrimidin-5-yl)phenyl]-N-[5-(1,3-thiazol-4-yl)pyridin-2-yl]tetrahydro-2H-pyran-4-carboxamide] | 646 nM | 17.1 nM
16 | Nc1ncc(-c2ccc(C3(C(=O)Nc4cccc(-c5ccncc5)c4)CCOCC3)cc2)cn1 [Example 33, 4-[4-(2-aminopyrimidin-5-yl)phenyl]-N-[3-(pyridin-4-yl)phenyl]tetrahydro-2H-pyran-4-carboxamide] | > 3000 nM | 42.5 nM
17 | N=C(N)NC(=O)c1ccc(NC(=O)C2(c3ccc(-c4cnc(N)nc4)cc3)CCC2)nc1 [Example 108, 6-[({1-[4-(2-aminopyrimidin-5-yl)phenyl]cyclobutyl}carbonyl)amino]-N-carbamimidoylpyridine-3-carboxamide] | 1900 nM | 2 nM
18 | N#Cc1ccc(NC(=O)C2(c3ccc(-c4cnc(N)nc4)cc3)CCC2)cn1 [Example 241, 1-[4-(2-aminopyrimidin-5-yl)phenyl]-N-(6-cyanopyridin-3-yl)cyclobutanecarboxamide] | 406 nM | 5.6 nM
19 | Nc1ncc(-c2ccc(C3(C(=O)Nc4ccc5c(c4)C(=O)OC5)CCOCC3)cc2)cn1 [Example 71, 4-[4-(2-aminopyrimidin-5-yl)phenyl]-N-(3-oxo-1,3-dihydro-2-benzofuran-5-yl)tetrahydro-2H-pyran-4-carboxamide] | > 3000 nM | 190 nM
20 | COc1cncc(-c2ccc(C(C)(C(=O)Nc3ccc(OCc4ccccn4)cc3)C(C)C)cc2)c1 (stereo not drawn) [Example 111] | 2380 nM | 180 nM
21 | Cc1nc(-c2ccc(NC(=O)C3(c4ccc(-c5cnc(N)nc5)cn4)CCOCC3)nc2)cs1 [Example 128, 4-[5-(2-aminopyrimidin-5-yl)pyridin-2-yl]-N-[5-(2-methyl-1,3-thiazol-4-yl)pyridin-2-yl]tetrahydro-2H-pyran-4-carboxamide] | 815 nM | 140 nM
22 | CN1CCN(c2cc(NC(=O)C3(c4ccc(-c5cnc(N)nc5)cc4)CCC3)ccn2)CC1 [Example 252, 1-[4-(2-aminopyrimidin-5-yl)phenyl]-N-[2-(4-methylpiperazin-1-yl)pyridin-4-yl]cyclobutanecarboxamide] | 228 nM | 7.4 nM
23 | CC(C)C(C)(C(=O)Nc1ccc(Cl)cn1)c1ccc(-c2cnc(N)nc2)cc1 (stereo not drawn) [Example 136, 2-[4-(2-aminopyrimidin-5-yl)phenyl]-N-(5-chloropyridin-2-yl)-2,3-dimethylbutanamide] | 4690 nM | 10.3 nM
24 | CCN(CC)S(=O)(=O)c1cccc(NC(=O)C2(c3ccc(-c4cnc(N)nc4)cc3)CCOCC2)c1 [Example 78, 4-[4-(2-aminopyrimidin-5-yl)phenyl]-N-[3-(diethylsulfamoyl)phenyl] tetrahydro-2H-pyran-4-carboxamide] | > 3000 nM | 113 nM
25 | COc1cncc(-c2ccc(C(C)(C(=O)Nc3ccc(C)nn3)C(C)C)cc2)c1 (stereo not drawn) [Example 114] | > 20000 nM | 290 nM
26 | COC(=O)c1sc(-c2ccccc2)cc1NC(=O)C1(c2ccc(-c3cnc(N)nc3)cc2)CCOCC1 [Example 30, methyl 3-[({4-[4-(2-aminopyrimidin-5-yl)phenyl]tetrahydro-2H-pyran-4-yl}carbonyl)amino]-5-phenylthiophene-2-carboxylate] | 2240 nM | 18 nM
27 | CCCCc1ccc2cc(NC(=O)C(C)(c3ccc(-c4cncc(OC)c4)cc3)C(C)C)ccc2n1 (stereo not drawn) [Example 115, N-(2-butylquinolin-6-yl)-2-[4-(5-methoxypyridin-3-yl)phenyl]-2,3-dimethylbutanamide] | 17100 nM | 190 nM
